We go through one compound from the NIST ThermoML archive (doi:10.1016/j.jct.2010.09.009).

± gives the expanded uncertainty stated by the source.

This data set is described as follows: xn = mol fraction of the nth substance listed. The conditions noted are these: 101 kPa, Liquid, Vibrating tube method, x2 = 0.

What is called mass density is mass per unit of volume.

As for `O` [water] + CCC[N+](CCC)(CCC)CCC.[Br-], the mass density (278.15 K) was determined as 999.97 ± 0.05 kg/m3 and the mass density (283.15 K) is recorded as 999.7 ± 0.05 kg/m3.
